Key:
[1] = target: T1, androgen receptor (AR) splicing variant AR-v7 (Homo sapiens, UniProt P10275); experiment: Degradation activity on androgen receptor splicing variant AR-v7 in 22RV1 cells (ELISA); type: cell-based; details: AR-v7 degradation in 22RV1 cells, 48 h, class symbols
T1 construct: The degradation activity of compounds on AR-v7 in 22RV1 cells; host or cells: 22RV1 cells
T1 sequence (P10275 1-644 isoform P10275-3): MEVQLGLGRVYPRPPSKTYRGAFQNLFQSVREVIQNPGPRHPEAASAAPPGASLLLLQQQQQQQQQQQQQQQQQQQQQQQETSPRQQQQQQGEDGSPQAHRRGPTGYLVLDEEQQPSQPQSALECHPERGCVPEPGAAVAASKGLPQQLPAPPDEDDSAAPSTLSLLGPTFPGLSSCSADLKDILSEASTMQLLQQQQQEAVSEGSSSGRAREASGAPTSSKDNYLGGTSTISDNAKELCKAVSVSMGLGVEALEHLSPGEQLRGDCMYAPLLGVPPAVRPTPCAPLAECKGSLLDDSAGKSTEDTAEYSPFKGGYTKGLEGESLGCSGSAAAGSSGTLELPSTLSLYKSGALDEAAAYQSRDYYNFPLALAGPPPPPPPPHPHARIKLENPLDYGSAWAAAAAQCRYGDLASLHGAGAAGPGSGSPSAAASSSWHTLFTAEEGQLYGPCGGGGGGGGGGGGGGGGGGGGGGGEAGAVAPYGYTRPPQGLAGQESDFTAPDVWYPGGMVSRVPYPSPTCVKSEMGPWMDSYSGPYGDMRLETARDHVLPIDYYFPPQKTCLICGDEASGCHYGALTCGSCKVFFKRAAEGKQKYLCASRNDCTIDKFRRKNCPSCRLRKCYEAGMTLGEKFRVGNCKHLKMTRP

[2] = Pharmacokinetics in mice (plasma exposure after oral administration); type: in vivo; details: mouse, ICR mice, oral (i.g.) 3 mg/kg, read-out: After oral administration of 3 mg/kg, mouse plasma exposure AUCinf
22RV1 cells = details: Homo sapiens, 22Rv1, 144 h, read-out: 22RV1 IC50 (nM), 22RV1 cells, 6 days culture, CCK-8, OD 450 nm
Procedure: • 22RV1 cell lines (Cobioer, CBP6034) • Penicillin-Streptomycin (Hyclone, Cat. No. SV30010) • Cell counting kit-8 (Signalway Antibody, Cat. No. CP002)
Then, two wells were set for each concentration. 20 μL of the diluted compound solution was added to the cell culture well, and then the plate was gently shaken to mix. In addition, the experiment included 3 negative control wells only containing cells and 3 blank control wells only containing culture medium.

Row | Compound | DC50 [1] | AUC(0-inf) [2] | IC50 (22RV1 cells)
1 | Cc1nc(-c2ncc(Oc3ccc(C4(c5ccc(O[C@H]6C[C@H](Nc7ccc8c(c7)C(=O)N(C7CCC(=O)NC7=O)C8=O)C6)cc5)CC4)cc3)cn2)no1 (stereo partly drawn) [Example 212] | < 10 nM | 5000 to 30000 ng·h/mL | 14 nM
2 | CC(O)c1ncc(Oc2ccc(C(C)(C)c3ccc(O[C@H]4C[C@H](Nc5ccc6c(c5)C(=O)N(C5CCC(=O)NC5=O)C6=O)C4)cn3)cc2)cn1 (stereo partly drawn) [Example 223] | < 10 nM | 1000 to 5000 ng·h/mL | 0.5 nM
3 | CC(C)(c1ccc(Oc2ccnc(N3CC4(COC4)C3)n2)cc1)c1ccc(OC2CC(Nc3ccc4c(c3)C(=O)N(C3CCC(=O)NC3=O)C4=O)C2)cc1 (stereo not drawn) [Example 240, 5-((3-(4-(2-(4-((2-(2-oxa-6-azaspiro[3.3]heptan-6-yl)pyrimidin-4-yl)oxy)phenyl)propan-2-yl)phenoxy)cyclobutyl)amino)-2-(2,6-dioxopiperidin-3-yl)isoindolin-1,3-dione] | < 10 nM | 1000 to 5000 ng·h/mL | 12 nM
4 | CC(C)(c1ccc(Oc2cnc(N3CC4(COC4)C3)nc2)cc1)c1ccc(O[C@H]2C[C@H](Nc3ccc4c(c3)C(=O)N(C3CCC(=O)NC3=O)C4=O)C2)cc1 (stereo partly drawn) [Example 248] | < 10 nM | 1000 to 5000 ng·h/mL | 23 nM
5 | C=CC(c1ccc(Oc2ccc(-c3noc(C)n3)nn2)cc1)c1ccc(O[C@H]2C[C@H](Nc3ccc4c(c3)C(=O)N(C3CCC(=O)NC3=O)C4=O)C2)cc1 (stereo partly drawn) [Example 259] | < 10 nM | 5000 to 30000 ng·h/mL | 7 nM
6 | CC(C)(c1ccc(OCc2ccnc(N3CC4(COC4)C3)n2)cc1)c1ccc(OC[C@@H]2CCN2c2ccc3c(c2)C(=O)N(C2CCC(=O)NC2=O)C3=O)cc1 (stereo partly drawn) [Example 312, 5-((S)-2-((4-(2-(4-((2-(2-oxa-6-azaspiro[3.3]heptan-6-yl)pyrimidin-4-yl)methoxy)phenyl)propan-2-yl)phenoxy)methyl)azetidin-1-yl)-2-(2,6-dioxopiperidin-3-yl)isoindolin-1,3-dione] | < 10 nM | 100 to 1000 ng·h/mL | 22 nM
7 | Cc1nnc(-c2ccc(Oc3ccc(C(C)(C)c4ccc(O[C@H]5C[C@H](Nc6ccc7c(c6)C(=O)N(C6CCC(=O)NC6=O)C7=O)C5)cc4)cc3)cn2)o1 (stereo partly drawn) [Example 323] | < 10 nM | 5000 to 30000 ng·h/mL | 11 nM
8 | Cc1nc(-c2ccc(Oc3ccc(C4(c5ccc(O[C@H]6C[C@H](Nc7ccc8c(c7)C(=O)N(C7CCC(=O)NC7=O)C8=O)C6)cc5)CCCC4)cc3)nn2)no1 (stereo partly drawn) [Example 338] | < 10 nM | 1000 to 5000 ng·h/mL | 2 nM
9 | O=C1CCC(N2C(=O)c3ccc(N[C@H]4C[C@H](Oc5ccc(C6(c7ccc(OCc8ccnc(N9CC%10(COC%10)C9)n8)cc7)COC6)cc5)C4)cc3C2=O)C(=O)N1 (stereo partly drawn) [Example 355, 5-(((1r,3r)-3-(4-(3-(4-((2-(2-oxa-6-azaspiro[3.3]heptane-6-yl)pyrimidin-4-yl)methoxy)phenyl)oxetane-3-yl)phenoxy)cyclobutyl)amino)-2-(2,6-dioxopiperidin-3-yl)isoindolin-1,3-dione] | < 10 nM | 5000 to 30000 ng·h/mL | 2 nM
10 | O=C1CCC(N2C(=O)c3ccc(N[C@H]4C[C@H](Oc5ccc(C6(c7ccc(OCc8ccnc(N9CC%10(COC%10)C9)n8)cc7)CCC6)cc5)C4)cc3C2=O)C(=O)N1 (stereo partly drawn) [Example 358, 5-(((1r,3r)-3-(4-(1-(4-((2-(2-oxa-6-azaspiro[3.3]heptane-6-yl)pyrimidin-4-yl)methoxy)phenyl)cyclobutyl)phenoxy)cyclobutyl)amino)-2-(2,6-dioxopiperidin-3-yl)isoindolin-1,3-dione] | < 10 nM | 1000 to 5000 ng·h/mL | 9 nM
11 | O=C1CCC(N2C(=O)c3ccc(N[C@H]4C[C@@H](Oc5ccc(C6(c7ccc(OCc8ccnc(N9CC%10(COC%10)C9)n8)cc7)CCC6)cc5)C4)cc3C2=O)C(=O)N1 (stereo partly drawn) [Example 359, 5-(((1s,3s)-3-(4-(1-(4-((2-(2-oxa-6-azaspiro[3.3]heptane-6-yl)pyrimidin-4-yl)methoxy)phenyl)cyclobutyl)phenoxy)cyclobutyl)amino)-2-(2,6-dioxopiperidin-3-yl)isoindolin-1,3-dione] | < 10 nM | 1000 to 5000 ng·h/mL | 6 nM
12 | O=C1CCC(N2C(=O)c3ccc(N[C@H]4C[C@H](Oc5ccc(C6(c7ccc(OCc8ccnc(N9CC%10(COC%10)C9)n8)cc7)CCCC6)cc5)C4)cc3C2=O)C(=O)N1 (stereo partly drawn) [Example 360, 5-(((1r,3r)-3-(4-(1-(4-((2-(2-oxa-6-azaspiro[3.3]heptane-6-yl)pyrimidin-4-yl)methoxy)phenyl)cyclopentyl)phenoxy)cyclobutyl)amino)-2-(2,6-dioxopiperidin-3-yl)isoindolin-1,3-dione] | < 10 nM | 1000 to 5000 ng·h/mL | 4 nM
13 | O=C1CCC(N2C(=O)c3ccc(N[C@H]4C[C@@H](Oc5ccc(C6(c7ccc(OCc8ccnc(N9CC%10(COC%10)C9)n8)cc7)CCCC6)cc5)C4)cc3C2=O)C(=O)N1 (stereo partly drawn) [Example 361, 5-(((1s,3s)-3-(4-(1-(4-((2-(2-oxa-6-azaspiro[3.3]heptane-6-yl)pyrimidin-4-yl)methoxy)phenyl)cyclopentyl)phenoxy)cyclobutyl)amino)-2-(2,6-dioxopiperidin-3-yl)isoindolin-1,3-dione] | < 10 nM | 1000 to 5000 ng·h/mL | 8 nM
14 | O=C1CCC(N2C(=O)c3ccc(N[C@H]4C[C@H](Oc5ccc(S(=O)(=O)c6ccc(OCc7ccnc(N8CC9(COC9)C8)n7)cc6)cc5)C4)cc3C2=O)C(=O)N1 (stereo partly drawn) [Example 362, 5-(((1r,3r)-3-(4-((4-((2-(2-oxa-6-azaspiro[3.3]heptane-6-yl)pyrimidin-4-yl)methoxy)phenyl)sulfonyl)phenoxy)cyclobutyl)amino)-2-(2,6-dioxopiperidin-3-yl)isoindolin-1,3-dione] | < 10 nM | 100 to 1000 ng·h/mL | 20 nM
15 | C=CC(c1ccc(OCc2ccnc(N3CC4(COC4)C3)n2)cc1)c1ccc(O[C@H]2C[C@H](Nc3ccc4c(c3)C(=O)N(C3CCC(=O)NC3=O)C4=O)C2)cc1 (stereo partly drawn) [Example 367] | < 10 nM | 1000 to 5000 ng·h/mL | 8 nM

Second part, the compound after the results:

Row | DC50 [1] | AUC(0-inf) [2] | IC50 (22RV1 cells) | Compound
16 | 11 to 100 nM | 5000 to 30000 ng·h/mL | 8.6 nM | CC(C)(c1ccc(OCc2ccnc(-n3nccn3)n2)cc1)c1ccc(O[C@H]2C[C@H](Nc3ccc4c(c3)C(=O)N(C3CCC(=O)NC3=O)C4=O)C2)cc1 (stereo partly drawn) [Example 231]
17 | < 10 nM | 100 to 1000 ng·h/mL | 8 nM | CN1CCC(Nc2nccc(COc3ccc(C(C)(C)c4ccc(O[C@H]5C[C@H](Nc6ccc7c(c6)C(=O)N(C6CCC(=O)NC6=O)C7=O)C5)cc4)cc3)n2)CC1 (stereo partly drawn) [Example 232]
18 | < 10 nM | 100 to 1000 ng·h/mL | 3 nM | CC(C)(c1ccc(OCc2ccnc(NC3CCN(CCCCO)CC3)n2)cc1)c1ccc(O[C@H]2C[C@H](Nc3ccc4c(c3)C(=O)N(C3CCC(=O)NC3=O)C4=O)C2)cc1 (stereo partly drawn) [Example 239]
19 | < 10 nM | 1000 to 5000 ng·h/mL | 6 nM | Cc1noc(-c2nccc(COc3ccc(C(C)(C)c4ccc(O[C@H]5C[C@@H](Nc6ccc7c(c6)C(=O)N(C6CCC(=O)NC6=O)C7=O)C5)cc4)cc3)n2)n1 (stereo partly drawn) [Example 251]
20 | < 10 nM | 5000 to 30000 ng·h/mL | 6 nM | Cc1noc(-c2ncc(Oc3ccc(C(C)(C)c4ccc(O[C@H]5C[C@H](Nc6ccc7c(c6)C(=O)N(C6CCC(=O)NC6=O)C7=O)C5)cc4)cc3)cn2)n1 (stereo partly drawn) [Example 254]
21 | < 10 nM | 1000 to 5000 ng·h/mL | 9 nM | CC1(N)CN(c2nccc(COc3ccc(C(C)(C)c4ccc(O[C@H]5C[C@@H](Nc6ccc7c(c6)C(=O)N(C6CCC(=O)NC6=O)C7=O)C5)cc4)cc3)n2)C1 (stereo partly drawn) [Example 268]
22 | < 10 nM | 1000 to 5000 ng·h/mL | 4 nM | CC1(N)CN(c2nccc(COc3ccc(C(C)(C)c4ccc(O[C@H]5C[C@H](Nc6ccc7c(c6)C(=O)N(C6CCC(=O)NC6=O)C7=O)C5)cc4)cc3)n2)C1 (stereo partly drawn) [Example 275]
23 | < 10 nM | 5000 to 30000 ng·h/mL | 4 nM | Cc1nc(-c2nccc(COc3ccc(C(C)(C)c4ccc(O[C@H]5C[C@H](Nc6ccc7c(c6)C(=O)N(C6CCC(=O)NC6=O)C7=O)C5)cc4)cc3)n2)no1 (stereo partly drawn) [Example 279]
24 | < 10 nM | 5000 to 30000 ng·h/mL | 8 nM | CC(C)(c1ccc(Oc2ncc(-n3nccn3)cn2)cc1)c1ccc(O[C@H]2C[C@H](Nc3ccc4c(c3)C(=O)N(C3CCC(=O)NC3=O)C4=O)C2)cc1 (stereo partly drawn) [Example 321]
25 | < 10 nM | 5000 to 30000 ng·h/mL | 4 nM | CC(C)(c1ccc(Oc2ccc(-n3nccn3)nn2)cc1)c1ccc(O[C@H]2C[C@H](Nc3ccc4c(c3)C(=O)N(C3CCC(=O)NC3=O)C4=O)C2)cc1 (stereo partly drawn) [Example 324]
26 | 11 to 100 nM | 5000 to 30000 ng·h/mL | 5 nM | Cc1nc(-c2ccc(Oc3ccc(C(C)(C)c4ccc(O[C@H]5C[C@H](Nc6ccc7c(c6)C(=O)N(C6CCC(=O)NC6=O)C7=O)C5)cc4)cc3)nn2)no1 (stereo partly drawn) [Example 328]
